Measurements from PubChem BioAssay (NCI).
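1) Cells in 96-well plates. 2) Compound, 48 h, 5 concentrations. 3) Linear interpolation between surrounding doses. 4) Unreached endpoint = highest concentration. Here, GI50 denotes the concentration required for 50% inhibition of growth. At the TGI there is no net growth.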

Assays:
Test in all cases: NCI tumour cell line growth inhibition, 48 h
786-0 renal = tested on: 786-0 renal
SF-539 CNS = tested on: SF-539 CNS
SF-295 CNS = tested on: SF-295 CNS
U251 CNS = tested on: U251 CNS
M14 melanoma = tested on: M14 melanoma
OVCAR-5 ovarian = tested on: OVCAR-5 ovarian
SF-268 CNS = tested on: SF-268 CNS
EKVX NSCLC = tested on: EKVX NSCLC
NCI-H226 lung = tested on: NCI-H226 lung
MDA-MB-435 = tested on: MDA-MB-435
KM12 colon = tested on: KM12 colon
MOLT-4 leukemia = tested on: MOLT-4 leukemia
BT-549 breast = tested on: BT-549 breast
HT29 colon = tested on: HT29 colon
SK-OV-3 ovarian = tested on: SK-OV-3 ovarian
RXF 393 renal = tested on: RXF 393 renal
OVCAR-3 ovarian = tested on: OVCAR-3 ovarian
HL-60(TB) leukemia = tested on: HL-60(TB) leukemia
CCRF-CEM leukemia = tested on: CCRF-CEM leukemia
CAKI-1 renal = tested on: CAKI-1 renal
HOP-92 NSCLC = tested on: HOP-92 NSCLC
HCT-15 colon = tested on: HCT-15 colon
SR leukemia = tested on: SR leukemia
HCT-116 colon = tested on: HCT-116 colon
LOX IMVI melanoma = tested on: LOX IMVI melanoma
OVCAR-8 ovarian = tested on: OVCAR-8 ovarian
HS 578T breast = tested on: HS 578T breast
UACC-62 melanoma = tested on: UACC-62 melanoma
SNB-75 CNS = tested on: SNB-75 CNS
SK-MEL-28 melanoma = tested on: SK-MEL-28 melanoma
PC-3 prostate = tested on: PC-3 prostate
MCF7 breast = tested on: MCF7 breast
UACC-257 melanoma = tested on: UACC-257 melanoma
OVCAR-4 ovarian = tested on: OVCAR-4 ovarian
SN12C renal = tested on: SN12C renal
T-47D breast = tested on: T-47D breast
NCI-H460 lung = tested on: NCI-H460 lung
NCI/ADR-RES ovarian = tested on: NCI/ADR-RES ovarian
MDA-MB-231 breast = tested on: MDA-MB-231 breast
SNB-19 CNS = tested on: SNB-19 CNS
SW-620 colon = tested on: SW-620 colon
TK-10 renal = tested on: TK-10 renal
A498 renal = tested on: A498 renal
COLO 205 colon = tested on: COLO 205 colon
HCC-2998 colon = tested on: HCC-2998 colon
SK-MEL-5 melanoma = tested on: SK-MEL-5 melanoma
K-562 leukemia = tested on: K-562 leukemia
MALME-3M melanoma = tested on: MALME-3M melanoma
NCI-H23 lung = tested on: NCI-H23 lung
ACHN renal = tested on: ACHN renal
RPMI-8226 leukemia = tested on: RPMI-8226 leukemia
SK-MEL-2 melanoma = tested on: SK-MEL-2 melanoma
A549 NSCLC = tested on: A549 NSCLC
HOP-62 NSCLC = tested on: HOP-62 NSCLC
DU-145 prostate = tested on: DU-145 prostate

CCC(=O)c1c(C(F)(F)F)n([O-])c2cc(N3CCNCC3)c(F)cc2[n+]1=O
GI50 (786-0 renal): 3.86 µM | TGI (786-0 renal): 17.6 µM | GI50 (SF-539 CNS): 10.3 µM | TGI (SF-539 CNS): 22.4 µM | GI50 (SF-295 CNS): 4.2 µM | TGI (SF-295 CNS): 18.5 µM | GI50 (U251 CNS): 5.04 µM | TGI (U251 CNS): 19.9 µM | GI50 (M14 melanoma): 3.28 µM | TGI (M14 melanoma): 14.2 µM | GI50 (OVCAR-5 ovarian): 7.78 µM | TGI (OVCAR-5 ovarian): 27.3 µM | GI50 (SF-268 CNS): 4.76 µM | TGI (SF-268 CNS): 21.1 µM | GI50 (EKVX NSCLC): 2.82 µM | TGI (EKVX NSCLC): 13.7 µM | GI50 (NCI-H226 lung): 5.37 µM | TGI (NCI-H226 lung): 25.2 µM | GI50 (MDA-MB-435): 4.95 µM | TGI (MDA-MB-435): 17.3 µM | GI50 (KM12 colon): 1.41 µM | TGI (KM12 colon): 15.4 µM | GI50 (MOLT-4 leukemia): 2.03 µM | TGI (MOLT-4 leukemia): 34.5 µM | GI50 (BT-549 breast): 2.84 µM | TGI (BT-549 breast): 12.5 µM | GI50 (HT29 colon): 2.1 µM | TGI (HT29 colon): 18.5 µM | GI50 (SK-OV-3 ovarian): 1.97 µM | TGI (SK-OV-3 ovarian): 10.4 µM | GI50 (RXF 393 renal): 1.62 µM | TGI (RXF 393 renal): 15.1 µM | GI50 (OVCAR-3 ovarian): 1.66 µM | TGI (OVCAR-3 ovarian): 8.67 µM | GI50 (HL-60(TB) leukemia): 1.18 µM | TGI (HL-60(TB) leukemia): 6.68 µM | GI50 (CCRF-CEM leukemia): 2.05 µM | TGI (CCRF-CEM leukemia): 22.9 µM | GI50 (CAKI-1 renal): 3.27 µM | TGI (CAKI-1 renal): 17.9 µM | GI50 (HOP-92 NSCLC): 2.69 µM | TGI (HOP-92 NSCLC): 17.5 µM | GI50 (HCT-15 colon): 1.76 µM | TGI (HCT-15 colon): 13.5 µM | GI50 (SR leukemia): 1.53 µM | TGI (SR leukemia): 21.9 µM | GI50 (HCT-116 colon): 1.71 µM | TGI (HCT-116 colon): 13.1 µM | GI50 (LOX IMVI melanoma): 3.41 µM | TGI (LOX IMVI melanoma): 19.4 µM | GI50 (OVCAR-8 ovarian): 2.38 µM | TGI (OVCAR-8 ovarian): 11.7 µM | GI50 (HS 578T breast): 2.74 µM | TGI (HS 578T breast): 21.3 µM | GI50 (UACC-62 melanoma): 2.27 µM | TGI (UACC-62 melanoma): 11.9 µM | GI50 (SNB-75 CNS): 1.77 µM | TGI (SNB-75 CNS): 12.5 µM | GI50 (SK-MEL-28 melanoma): 7.93 µM | TGI (SK-MEL-28 melanoma): 21.9 µM | GI50 (PC-3 prostate): 2.33 µM | TGI (PC-3 prostate): 15.8 µM | GI50 (MCF7 breast): 3.48 µM | TGI (MCF7 breast): 19.8 µM | GI50 (UACC-257 melanoma): 3.22 µM | TGI (UACC-257 melanoma): 13 µM | GI50 (OVCAR-4 ovarian): 1.89 µM | TGI (OVCAR-4 ovarian): 25 µM | GI50 (SN12C renal): 2.73 µM | TGI (SN12C renal): 14.6 µM | GI50 (T-47D breast): 2.81 µM | TGI (T-47D breast): 19.1 µM | GI50 (NCI-H460 lung): 1.48 µM | TGI (NCI-H460 lung): 11.5 µM | GI50 (NCI/ADR-RES ovarian): 3.95 µM | TGI (NCI/ADR-RES ovarian): 24.3 µM | GI50 (MDA-MB-231 breast): 4.17 µM | TGI (MDA-MB-231 breast): 17.1 µM | GI50 (SNB-19 CNS): 7.31 µM | TGI (SNB-19 CNS): 20.6 µM | GI50 (SW-620 colon): 2.68 µM | TGI (SW-620 colon): 17.9 µM | GI50 (TK-10 renal): 2.93 µM | TGI (TK-10 renal): 17 µM | GI50 (A498 renal): 1.67 µM | TGI (A498 renal): 11.1 µM | GI50 (COLO 205 colon): 0.454 µM | TGI (COLO 205 colon): 10.8 µM | GI50 (HCC-2998 colon): 1.4 µM | TGI (HCC-2998 colon): 14.3 µM | GI50 (SK-MEL-5 melanoma): 1.26 µM | TGI (SK-MEL-5 melanoma): 3.55 µM | GI50 (K-562 leukemia): 1.65 µM | TGI (K-562 leukemia): 12.8 µM | GI50 (MALME-3M melanoma): 0.324 µM | TGI (MALME-3M melanoma): 8.16 µM | GI50 (NCI-H23 lung): 3.42 µM | TGI (NCI-H23 lung): 16.2 µM | GI50 (ACHN renal): 1.55 µM | TGI (ACHN renal): 13.7 µM | GI50 (RPMI-8226 leukemia): 2.17 µM | TGI (RPMI-8226 leukemia): 12.2 µM | GI50 (SK-MEL-2 melanoma): 2.7 µM | TGI (SK-MEL-2 melanoma): 11.7 µM | GI50 (A549 NSCLC): 2.58 µM | TGI (A549 NSCLC): 13.8 µM | GI50 (HOP-62 NSCLC): 10.2 µM | TGI (HOP-62 NSCLC): 22.6 µM | GI50 (DU-145 prostate): 1.61 µM | TGI (DU-145 prostate): 4.36 µM
